The values that follow come from ChEMBL document CHEMBL4219268, “Synthesis and evaluation of N-(4-benzylphenyl)piperazines as VGF inducers” (Bioorg Med Chem Lett, 2018).

The structures appear in SMILES notation.

The subject of data set [1] is SH-SY5Y. The data set is described as follows: Induction of VGF gene expression in human SH-SY5Y cells at 3 uM after 24 hrs by qRT-PCR analysis relative to SUN N8075. The data set is classed as functional. Background: Real-time PCR tracks product formation cycle by cycle.
The subject of data set [2] is SH-SY5Y. In words: Cytoprotective activity against tunicamycin-induced ER stress in human SH-SY5Y cells assessed as cell viability at 3 uM preincubated for 1 hr followed by tunicamycin addition measured after 48 hrs by WST-8 assay relative to SUN N8075. In kind it is functional. Particulars: read-out: Activity. For orientation: Formazan colour is commonly taken as a measure of viable cells.

The target of data set [3] is CYP3A4 (Homo sapiens, UniProt P08684). The data set is described as follows: Inhibition of CYP3A4 in human liver microsomes using testosterone as substrate assessed as residual activity at 10 uM preincubated for 30 mins followed by substrate addition measured after 10 mins in presence of NADPH by LC-MS/MS analysis. In kind it is ADME. Particulars: probe testosterone, read-out: Activity. (Microsomes from liver hold many membrane-bound enzymes, among them those of drug oxidation.)
Sequence of CYP3A4 (P08684 whole entry): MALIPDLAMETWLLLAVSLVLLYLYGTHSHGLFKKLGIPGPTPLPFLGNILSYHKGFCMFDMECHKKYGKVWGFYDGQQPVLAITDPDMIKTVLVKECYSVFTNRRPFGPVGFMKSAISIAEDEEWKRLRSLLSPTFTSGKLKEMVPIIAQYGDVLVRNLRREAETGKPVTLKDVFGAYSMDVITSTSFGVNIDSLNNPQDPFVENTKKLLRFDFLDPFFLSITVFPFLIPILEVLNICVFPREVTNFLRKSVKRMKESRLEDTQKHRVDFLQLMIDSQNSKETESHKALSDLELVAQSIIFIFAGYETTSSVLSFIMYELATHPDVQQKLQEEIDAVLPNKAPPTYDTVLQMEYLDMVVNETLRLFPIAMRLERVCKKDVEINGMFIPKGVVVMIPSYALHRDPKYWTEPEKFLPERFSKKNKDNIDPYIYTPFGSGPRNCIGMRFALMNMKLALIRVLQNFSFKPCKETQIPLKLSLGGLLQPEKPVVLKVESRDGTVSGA

A short description of data set [4]: Drug metabolism in human liver microsomes assessed as metabolic rate per mg protein at 1 uM measured at 3 to 30 mins by LC-MS/MS analysis. In kind it is ADME, microsome.
For data set [5], the system named is SH-SY5Y. In words: Induction of VGF gene expression in human SH-SY5Y cells at 3 uM after 24 hrs by qRT-PCR analysis relative to control. In kind it is functional.
In data set [6] the test system is SH-SY5Y. In words: Cytoprotective activity against tunicamycin-induced ER stress in human SH-SY5Y cells assessed as cell viability at 3 uM preincubated for 1 hr followed by tunicamycin addition measured after 48 hrs by WST-8 assay (reference value: 45 +/- 6.6%). In kind it is functional. As to conditions: read-out: Activity.

Compound `OC(COc1ccc2ncccc2c1)CN1CCN(c2ccc(Cc3ccc(F)cc3)cc2)CC1` (stereo unspecified) returned an Activity in data set [1] of 36%. In addition, the viability at 3 µM in data set [2] was 64%. In data set [3], the activity at 10 min, 10 µM worked out at 70%. For the same compound, the Drug metabolism in data set [4] is listed as 122 pmol/min.
The like results for `Cl.Cl.Cl.Fc1ccc(Cc2ccc(N3CCN(CC(F)COc4ccc5ncccc5c4)CC3)cc2)cc1` (stereo unspecified) were, in that order, 77%, 89%, 82% and 79 pmol/min.
The like results for `Cc1cc(C)c(C)c(OCC(F)CN2CCN(c3ccc(Cc4ccc(F)cc4)cc3)CC2)c1.Cl.Cl` (stereo unspecified) were, in that order, 75%, 60%, 107% and 25 pmol/min.
`OC(COc1ccc2[nH]ccc2c1)CN1CCN(c2ccc(Cc3ccc(F)cc3)cc2)CC1` (stereo unspecified) had an Activity in data set [1] of 30%. For the same compound, the viability at 3 µM in data set [2] stood at 43%. The activity at 10 min, 10 µM in data set [3] stood at 59%. In data set [4], the Drug metabolism is 79 pmol/min.
`Cc1cc(OC[C@H](F)CN2CCN(c3ccc(Cc4ccc(F)cc4)cc3)CC2)cc(C)n1.Cl` returned an Activity in data set [1] of 78%. Besides, the viability at 3 µM in data set [2] came out at 93%. Further, the activity at 10 min, 10 µM in data set [3] came to 83%. Moreover, in data set [4], the Drug metabolism is 71 pmol/min.
In data set [1], `Cc1cc(OC[C@@H](F)CN2CCN(c3ccc(Cc4ccc(F)cc4)cc3)CC2)cc(C)n1.Cl` gave an Activity of 68%. For the same compound, in data set [2], the viability at 3 µM is 96%. Moreover, the activity at 10 min, 10 µM in data set [3] turned out to be 80%. Besides, in data set [4], the Drug metabolism turned out to be 37 pmol/min.
The compound `O=C1CCc2cc(OCC(O)CN3CCN(c4ccc(Cc5ccc(F)cc5)cc4)CC3)ccc2N1` (stereo unspecified) had an Activity in data set [1] of 32%. In addition, the viability at 3 µM in data set [2] is 33%. For the same compound, the activity at 10 min, 10 µM in data set [3] is 88%. For the same compound, the Drug metabolism in data set [4] came out at 27 pmol/min.
Turning to `Cl.Fc1ccc(Cc2ccc(N3CCN(CCCOc4ccc5ncccc5c4)CC3)cc2)cc1`, in data set [1], the Activity stood at 52%. Further, in data set [2], the viability at 3 µM was 75%. Further, in data set [3], the activity at 10 min, 10 µM is 94%. In data set [4], the Drug metabolism stood at 47 pmol/min.
The matching figures for `Cc1cc(OCC(F)CN2CCN(c3ccc(Cc4ccc(F)cc4)cc3)CC2)cc(C)n1.Cl.Cl.Cl` (stereo unspecified): 79%, 82%, 67% and 41 pmol/min.
`CS(=O)(=O)O.CS(=O)(=O)O.Cc1cc(OCC(O)CN2CCN(c3ccc(Cc4ccc(F)cc4)cc3)CC2)c(C)c(C)c1N` (stereo unspecified): in data set [3], the activity at 10 min, 10 µM was found to be 57%. Also, the Drug metabolism in data set [4] is on record as 153 pmol/min. In data set [5], the “fold change (FC)” value was determined as 5.1. Moreover, the viability at 3 µM in data set [6] turned out to be 82%.
For `Cl.OC(COc1ccccc1)CN1CCN(c2ccc(Cc3ccc(F)cc3)cc2)CC1` (stereo unspecified), the Activity in data set [1] was 8%. Besides, in data set [2], the viability at 3 µM came out at 43%. In data set [4], the Drug metabolism stood at 28 pmol/min.
Take `NC(=O)c1ccc(OCC(F)CN2CCN(c3ccc(Cc4ccc(F)cc4)cc3)CC2)cc1` (stereo unspecified): the Activity in data set [1] is on record as 20%. In addition, in data set [2], the viability at 3 µM turned out to be 21%. For the same compound, the activity at 10 min, 10 µM in data set [3] turned out to be 76%. In data set [4], the Drug metabolism amounted to 34 pmol/min.
The matching figures for `Cl.Cl.Cl.Fc1ccc(Cc2ccc(N3CCN(CC(F)COc4ccncc4)CC3)cc2)cc1` (stereo unspecified): 13%, 13%, 101% and less than 10 pmol/min.
The compound `NS(=O)(=O)c1ccc(OCC(F)CN2CCN(c3ccc(Cc4ccc(F)cc4)cc3)CC2)cc1` (stereo unspecified) came in with an Activity in data set [1] of 71%. The viability at 3 µM in data set [2] is 88%. Also, in data set [3], the activity at 10 min, 10 µM came out at 99%. The Drug metabolism in data set [4] turned out to be 12 pmol/min.
The matching figures for `Cc1cc(S(N)(=O)=O)ccc1OCC(F)CN1CCN(c2ccc(Cc3ccc(F)cc3)cc2)CC1` (stereo unspecified): 114%, 105%, 108% and 17 pmol/min.
The like results for `Cc1cc(S(N)(=O)=O)c(C)c(C)c1OCC(F)CN1CCN(c2ccc(Cc3ccc(F)cc3)cc2)CC1` (stereo unspecified) were, in that order, 172%, 106%, 92% and 32 pmol/min.
In the case of `Cc1cc(OCC(F)CN2CCN(c3ccc(Cc4ccc(F)cc4)cc3)CC2)c(C)c(C)c1N.Cl.Cl.Cl` (stereo unspecified), the Activity in data set [1] was 126%. Besides, the viability at 3 µM in data set [2] is 94%. For the same compound, in data set [3], the activity at 10 min, 10 µM stood at 75%. In addition, the Drug metabolism in data set [4] was found to be 106 pmol/min.
The like results for `Cl.Cl.Cl.Fc1ccc(Cc2ccc(N3CCN(CC(F)(F)COc4ccc5ncccc5c4)CC3)cc2)cc1` were, in that order, 68%, 67%, 93% and 34 pmol/min.
